Like-named read-outs stand apart in the source and are kept apart here.
Columns and labels:
DCAF10 = assay: Peptide pull-down with quantitative MS, HeLa lysate, DCAF10; format: binding, human (HeLa)
human NatA = target: T1, human NatA (Homo sapiens, UniProt P41227+Q9BXJ9); assay: In vitro Nt-acetylation assay (NatA, CPM fluorescence); format: biochemical
T1 construct: Human NatA (hNatA) full-length (FL) was cloned; made in house; host or cells: Tnao38 insect cells (baculovirus, pFL vector)
T1 sequence (P41227 1-235): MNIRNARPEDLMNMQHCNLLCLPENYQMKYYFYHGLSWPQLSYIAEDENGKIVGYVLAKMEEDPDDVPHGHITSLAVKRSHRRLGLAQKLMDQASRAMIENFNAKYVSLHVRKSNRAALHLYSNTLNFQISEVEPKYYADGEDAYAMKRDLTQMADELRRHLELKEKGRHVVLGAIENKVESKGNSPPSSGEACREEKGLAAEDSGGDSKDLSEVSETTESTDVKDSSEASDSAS
T1 sequence (Q9BXJ9 1-866 partner): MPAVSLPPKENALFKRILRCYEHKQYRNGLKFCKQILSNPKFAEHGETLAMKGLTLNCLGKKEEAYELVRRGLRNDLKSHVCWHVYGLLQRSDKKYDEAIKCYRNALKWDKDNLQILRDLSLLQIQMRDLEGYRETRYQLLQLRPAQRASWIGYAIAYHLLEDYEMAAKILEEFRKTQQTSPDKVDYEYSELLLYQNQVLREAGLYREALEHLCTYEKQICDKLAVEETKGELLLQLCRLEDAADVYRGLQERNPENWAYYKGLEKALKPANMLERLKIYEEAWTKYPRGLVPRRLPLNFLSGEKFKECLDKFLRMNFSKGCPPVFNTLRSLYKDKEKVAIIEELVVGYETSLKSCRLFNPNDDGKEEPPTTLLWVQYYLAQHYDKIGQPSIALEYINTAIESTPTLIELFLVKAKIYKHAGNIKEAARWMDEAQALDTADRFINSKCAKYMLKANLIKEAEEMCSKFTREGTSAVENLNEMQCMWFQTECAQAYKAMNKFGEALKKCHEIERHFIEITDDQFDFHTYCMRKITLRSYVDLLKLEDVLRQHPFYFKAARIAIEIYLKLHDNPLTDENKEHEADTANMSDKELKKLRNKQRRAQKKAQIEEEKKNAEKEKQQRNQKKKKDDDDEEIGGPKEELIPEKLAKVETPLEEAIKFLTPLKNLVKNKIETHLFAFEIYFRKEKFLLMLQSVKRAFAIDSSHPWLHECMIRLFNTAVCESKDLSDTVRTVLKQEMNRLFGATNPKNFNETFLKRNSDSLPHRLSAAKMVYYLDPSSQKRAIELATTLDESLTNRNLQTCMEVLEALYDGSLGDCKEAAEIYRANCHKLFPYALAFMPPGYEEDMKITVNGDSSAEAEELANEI
Method: Gly-starting proteins can be substrates of the Nt-acetyltransferase NatA[3],[21]. Having established direct DCAF10 binding to Ac-Gly N-termini, we next asked whether SFK N-termini are bona fide NatA substrates. We developed an in vitro Nt-acetylation assay comprising purified NatA, acetyl-CoA (Ac-CoA), and the peptide of interest (Fig. 3a, b)[33]. Acetyl-group transfer was assessed using CPM [7-(diethylamino)−3-(4′-maleimidophenyl)−4-methylcoumarin], which reacts specifically with free thiol groups to produce a highly fluorescent product (excitation: 390 nm; emission: 479 nm), allowing detection of CoA production after acetyl-group transfer to the peptide (Supplementary Fig. 4e). We optimized the conditions to determine Michaelis–Menten kinetics for NatA-mediated Nt-acetylation with a target peptide ([…]) previously used for NatA assays and co-crystallization (Supplementary Fig. 4f)[34]. […] Likely, this was due to a Km even higher than that of Src, and implying that the peptide concentrations in the assay might have been insufficient for the reaction to proceed with an appreciable rate. […] Negative controls (COX17 and Ac-Lyn) produced low signals. […] Given the direct association of NatA with SFK N-termini at the ribosomal exit tunnel, however, we surmise that Nt-acetylation of SFKs in cells may proceed despite these unfavorable kinetic parameters.
The assay was performed essentially as described previously. Briefly, peptide substrates (Supplementary Table 1) were incubated with purified human NatA and acetyl-CoA; acetylation was quantified by CPM fluorescence (CoA detection), and Michaelis–Menten parameters were derived from 8-point 1:1 dilution series within the linear range (n = 4 independent enzymatic assays). Full buffer compositions, reagent concentrations, plate format, instrument settings, controls, and fitting procedures are provided in the Supplementary Methods and Tables. […]
301 Cloning, expression, and purification of human NatA
302 Human NatA (hNatA) full-length (FL) was cloned in a pFL vector expressing both
303 genes, NAA15 with a 6× C-term histidine tag (NAA15-6xHIS) and NAA102. The
304 expression was carried out in insect cells (Tnao38) for 72 h infected 1:20 with
305 baculovirus. Washed cell pellets were lysed by sonication in a lysis buffer containing 200
306 mM NaCl, 50 mM HEPES pH 8.0, 20 mM Imidazole, and 2 mM TCEP. The protein
307 purification was performed as a three-step purification, starting with an affinity nickel
308 column, followed by an ion-exchange column with a gradient of 50–300 mM NaCl, and
309 finished with size exclusion chromatography (SEC) using an S200 10/300 column. The
310 main peaks were collected, and the protein was concentrated in the SEC buffer (150 mM
311 NaCl, 50 mM HEPES pH 8.0, 1 mM EDTA). The purified hNatA was flash-frozen in
312 liquid nitrogen and stored at -80°C.
314 In vitro Nt-acetylation assay
315 The method has been described in detail previously2. Briefly, different peptides
316 (Supplementary Table 1) and concentrations (an eight-step, 1:1 dilution series for
317 Michaelis-Menten curves) as indicated were incubated with 20 nM hNatA and 80 µM Ac-
318 CoA in reaction buffer (50 mM HEPES pH 8.0, 0.5 mM EDTA, 0.005% CHAPS) for 60
319 (Src) or 120 min (Lyn), at RT in a 384-well microplate (Corning 4514) (n = 4).
320 Afterwards, the enzymatic reaction was stopped by adding 1:1 DMSO with 10 µM (final
321 concentration 5 µM) of the thiol reactive CPM (7-Diethylamino-3-
322 (4'Maleimidylphenyl)4-Methylcoumarin). After 1 h at RT, the readout was performed
323 with a Tecan Spark® Multimode Microplate Reader (excitation 390 nm, emission 479
324 nm). Background values at 0 µM peptide were subtracted, and control reactions omitting
325 NatA or Ac-CoA were performed. Dilution series of CoA incubated with 5 µM CPM were
326 used to generate a linear equation (y = 10.99*x + 81.06) to calculate acetylation velocities
327 for NatA-mediated peptide acetylation. […]

[1] = 20 nM NatA, 80 µM Ac-CoA, pH 8.0, RT, 60 min, CPM fluorescence 390/479 nm, mean ± s.d., n = 4, read-out: Km

## GCITDDGKDSKK [Ac-Lyn^swap, Lyn peptide carrying Thr5-Asp6-Asp7 of THOC7]
DCAF10; HeLa lysate, n = 3
  log₂ difference Ac-Lyn^swap vs Ac-THOC7^swap, DCAF10: −1.23
DCAF10; direct comparisons Ac-Lyn vs Ac-Lyn^swap and Ac-THOC7 vs Ac-THOC7^swap, HeLa lysate
  DCAF10 binding of swap peptide vs its WT (in words): significantly reduced

## GSNKSKPKDAKK [Myr-Src, Nt-peptide of Src, N-myristoylated]
DCAF10; HeLa lysate
  DCAF10 binding, Nt-Ac vs Nt-Myr (in words): no detectable DCAF10 binding

## GSNKSKPKDAKK [Nt-free Src, Nt-peptide of Src, Nt-free]
Human NatA; [1]
  Km: 144 ± 24 µM
Human NatA; conclusion: poor NatA substrates, read-out: Km, summary statement
  Km: > 100 µM
Human NatA; rounded values in Peer Review File, read-out: Km, as given in rebuttal
  Km: 143 µM

## NatA target peptide: target peptide previously used for NatA assays and co-crystallization (SASEAGVRWG) [reference compound]
Human NatA; [1]
  Km: 8.4 ± 1.7 µM

## PCIKSKGKDSKK [Lyn^G2P, Nt-free Pro mutant Nt-peptide of Lyn]
DCAF10; n = 3 replicates
  DCAF10 binding of Nt-mutant peptides (in words): failed to bind DCAF10 in all replicates

## PGLVDSNPAPKK [COX17, Pro-starting peptide from COX17, negative control, reference compound]
Human NatA; original assay, peptide up to 160 μM
  Nt-acetylation by NatA (in words): no detectable acetylation
Human NatA; starting peptide concentration 1 mM
  Nt-acetylation by NatA (in words): low signals

Reference: publication PMC12775124, “CUL4A-DDB1-DCAF10 is an N-recognin for N-terminally acetylated Src kinases” (Nature Communications, 2026)
